This is an account of results in patent US12702697B2, “Compositions and methods for treatment of headache disorders and neuropathic pain” (Washington University, priority 2019, dated 2026).

Assay [1] deals with Treg cells and CD3+ T cells in dura, TG and DRG. The assay can be described thus: Immunohistochemistry of CD3+ T cells and EGFP+ Treg cells in dura, TG, DRG and cervical/medullary dorsal horn. In kind it is in vivo, mouse. The protocol: Tissue preparation, immunohistochemistry, and image analysis. Mice were euthanized with i.p. injection of barbiturate (200 mg/kg) and were transcardially perfused with warm 0.1 M phosphate buffered saline (pH 7.2) followed by cold 4% formaldehyde in 0.1 M phosphate buffer (pH 7.2) for fixation. Trigeminal ganglia, lumbar L4 DRG, and the tissues containing the cervical/medullary dorsal horn (from obex to C3 cervical spinal cord) were collected and sectioned at […] in the transverse plane, collected on Superfrost Plus glass slides in sequence and stored at […]
The dura was carefully dissected from the skull using forceps and stained as whole mount. T cells were identified by the rat anti-CD3 antibody (clone 17A2, 1:200; eBioscience, San Diego, CA), and Treg cells were identified with the chicken anti-EGFP (1:1000; AVES Lab, Tigard, OR) antibody in tissues from DEREG mice. […] To quantify CD31 T cells and Treg cells on the dura, we took random, nonoverlapping images (10 per mouse) in areas adjacent to the middle meningeal artery (MMA). To quantify T cells and Treg cells in TG, DRG, and cervical/medullary dorsal horn, all cells on individual sections were counted, and the number was multiplied by 4 to obtain the total number of cells per ganglion in each mouse. […] Representative images were adjusted for contrast and brightness using the same parameter within individual experiments. No other manipulations were made to the images. Image analysis was performed with experimenters blinded to the experimental groups.

In assay [2] the test system is NTG-induced skin hypersensitivity in mice. Briefly: Mouse model of chronic migraine (repetitive NTG): hindpaw and facial von Frey thresholds, cheek acetone test. In kind it is in vivo. The protocol:
Mouse model of chronic migraine and drug treatments: After measuring baseline nociceptive responses, mice received repetitive intraperitoneal (i.p.) injections of NTG (10 mg/kg in saline with 1% propylene glycol) or vehicle (saline with 1% propylene glycol in saline, 10 mL/kg) every 2 days for 4 or more times as described previously (Pradhan A A, et al. PAIN 2014; 155:269-74). Nocifensive behaviors were measured 2 days after each injection (before the next treatment). NTG (SDM27; Copperhead Chemical, Tamaqua, PA) was freshly diluted from the stock (10% in propylene glycol, aliquoted in airtight glass vials and stored at 4° C.) with saline for every injection. Recombinant mouse IL2 (carrier-free; Biolegend, San Diego, CA) was freshly diluted from the stock (1 mg/mL aliquots at […]) every day. Each mouse received daily i.p. injection of […] IL2 in […] saline. The control mice received daily i.p. injections of […] saline. In Treg depletion experiment, mice received 1 i.p. injection of antibodies against CD25 ([…], BP0012; BioXcell, West Lebanon, NH11) or control IgG (BP0088; BioXcell). The antibody binds to CD25 on Treg cell membrane and depletes Treg cells through Fcg receptor III-mediated antibody-dependent cellular cytotoxicity and antibody-dependent cellular phagocytosis (Setiady Y Y, et al, Eur J Immunol 2010; 40:780-6). Note that on the days that the mouse behaviors were tested, NTG, IL2 and/or antibodies were always injected after completing the behavioral tests.
(§1) Responses to mechanical stimuli on the hindpaw. Mice were habituated in individual clear plexiglass boxes (11×11×15 cm) for 1 to 2 hours. A series of calibrated von Frey filaments was used to apply mechanical stimuli to the plantar surface of the hindpaws. The up-down paradigm was used to determine the 50% withdrawal threshold. The thresholds for both hindpaws were averaged to yield a single value for each mouse.
Cheek acetone test. The acute nocifensive response to acetone-evoked evaporative cooling on mouse cheek was measured as previously described (Constandil L, et al. J Pain 2012; 13:579-89). The day before testing, both cheeks were shaved (6.5×12 mm) under brief anesthesia (2% isoflurane in 100% oxygen). On the test day, mice were habituated in individual plexiglass cylinders (11-cm diameter, 15-cm height) situated in front of 3-way mirrors for 1 to 2 hours. Acetone ([…]) was applied to the shaved cheeks and immediately returned mice to the cylinders. Time spent wiping the treated area was recorded by a video camera and quantified offline. For individual mice, acetone was applied alternatingly to both cheeks at 10-minute intervals, and the duration of behavior was averaged from 4 applications.
Withdrawal responses to facial mechanical stimuli. The hair on mouse forehead (above and between 2 eyes) was shaved the day before testing. On the test day, the experimenter gently held the mouse on the palm with minimal restraint and applied the calibrated von Frey filament perpendicularly to the shaved skin, causing the filament to bend for 5 seconds. A positive response was determined by the following criteria as previously described: mouse vigorously stroked its face with the forepaw, head withdrawal from the stimulus, or head shaking (Elliott M B et al., Headache 2012; 52:966-84). The up-down paradigm was used to determine the 50% withdrawal threshold. […]

The test system of assay [3] is nerve injury-induced punctate and dynamic allodynia. The conditions noted are these: cited from earlier work.
The subject of assay [4] is NTG/NO donor- or mTBI-induced cutaneous allodynia in rodents. The conditions noted are these: cited from earlier work; for persistent cephalic mechanical hypersensitivity induced by repeated isosorbide dinitrate: Dallel R, et al., Cephalalgia 2018.
Assay [5] has as its system sumatriptan-induced cutaneous hypersensitivity in mice. Briefly: Mouse model of medication overuse headache (repeated sumatriptan). In kind it is in vivo. The conditions noted are these: daily sumatriptan 0.6 mg/kg i.p.; male and female C57BL/6J. The protocol:
Mouse model of medication overuse headache. After measuring baseline nociceptive responses, mice received daily i.p. injections of sumatriptan succinate (0.6 mg/kg; Fresenius Kabi, Lake Zurich, IL44). Daily ld-IL2 or saline were administered after mice received 2 sumatriptan injections. Facial and hindpaw mechanical thresholds were measured every 2 days. Note that on the days that the mouse behaviors were tested, sumatriptan and/or IL2 were always injected after completing the behavioral tests.
as §1
Withdrawal responses to facial mechanical stimuli. The hair on mouse forehead (above and between 2 eyes) was shaved the day before testing. On the test day, the experimenter gently held the mouse on the palm with minimal restraint and applied the calibrated von Frey filament perpendicularly to the shaved skin, causing the filament to bend for 5 seconds. A positive response was determined by the following criteria as previously described: mouse vigorously stroked its face with the forepaw, head withdrawal from the stimulus, or head shaking (Elliott M B et al., Headache 2012; 52:966-84). The up-down paradigm was used to determine the 50% withdrawal threshold.

Take `O=[N+]([O-])OCC(CO[N+](=O)[O-])O[N+](=O)[O-]` [NTG, nitroglycerin, reference compound]: the “increase in total CD3+ cells in TG” value in assay [1] (repeated NTG) was 2 fold. Besides, the “proportion of Treg cells among total T cells in TG” value in assay [1] (repeated NTG administration) is recorded as “significantly reduced”. For the same compound, in assay [1] (repeated NTG, C57BL/6J), the “density of CD3+ T cells in the dura surrounding the MMA or in L4 DRG” value was “not altered”. In addition, the “CD3+ cells per TG” value in assay [1] (repeated NTG, female C57BL/6J, n=6) turned out to be 4135±562 cells per TG. In assay [1] (repeated injections of NTG), the “reduction of the ratio of Treg cells among CD3+ T cells in mouse TG” value stood at 50%. Moreover, in assay [1] (repetitive NTG injections, female DEREG mice), the “total number of EGFP+ Treg cells in TG and DRG” value is recorded as “neither was significantly altered”. In addition, the “mechanical threshold at the periorbital region” value in assay [2] (2 days after the first NTG injection, female Swiss Webster) was “substantially reduced”. The “50% withdrawal thresholds to von Frey filaments on the hindpaws” value in assay [2] (NTG 10 mg/kg i.p. every 2 days for 5 times, male and female C57BL/6J) was “induced a progressive and sustained mechanical hypersensitivity”. The “facial mechanical threshold 3 hours after systemic NTG” value in assay [2] (NTG 10 mg/kg i.p., naive C57BL/6J, day 1) is given as “significantly reduced”. Besides, the “time facial mechanical hypersensitivity was sustained by repeated NTG injections” value in assay [2] (male C57BL/6J) is reported as “at least 4 weeks”. Moreover, the “duration of acetone-induced cheek wiping” value in assay [2] (repeated NTG, female C57BL/6J) is “persistent increase”; in assay [2] (repetitive NTG, female Swiss Webster) it was “gradual increase”.

For the compound `CN1CC[C@]23c4c5ccc(O)c4O[C@H]2[C@@H](O)C=C[C@H]3[C@H]1C5` [morphine], the “nerve injury-induced punctate allodynia, early stage” value in assay [3] (<2 weeks post-injury) was “attenuates”. Also, in assay [3] (all stages), the “nerve injury-induced dynamic allodynia” value was “does not respond”. Moreover, in assay [3] (late stage), the “nerve injury-induced punctate allodynia, late stage” value is “not late stage”.

For `NCCCC[C@H](NC(=O)[C@@H](Cc1cc(Br)c(O)c(Br)c1)NC(=O)N1CCC(N2Cc3ccccc3NC2=O)CC1)C(=O)N1CCN(c2ccncc2)CC1` [olcegepant], in assay [4], the “persistent cephalic mechanical hypersensitivity induced by repeated isosorbide dinitrate” value was “neither sumatriptan nor CGRP receptor antagonist olcegepant prevents”.

As for `CC1(C)O[C@@H]2[C@@H](CO[C@@]3(COS(N)(=O)=O)OC(C)(C)O[C@@H]23)O1` [topiramate], in assay [4] (daily treatment, mice), the “NTG-enhanced behavioral responses to acetone-induced cooling of facial skin” value is given as “can be blocked”.

As for `CC(C)NCC(O)COc1cccc2ccccc12` (stereo not drawn) [propranolol], the “persistent facial mechanical hypersensitivity from repeated enhancing of NO signaling” value in assay [4] (previous studies) is listed as “can be blocked”.

Consider `CNS(=O)(=O)Cc1ccc2[nH]cc(CCN(C)C)c2c1` [sumatriptan, sumatriptan succinate], for which the “persistent cephalic mechanical hypersensitivity induced by repeated isosorbide dinitrate” value in assay [4] is on record as “neither sumatriptan nor CGRP receptor antagonist olcegepant prevents”. In assay [4] (rodents), the “NTG-induced acute cutaneous allodynia and central sensitization” value is recorded as “can be blocked”. In addition, in assay [5], the “facial and hindpaw mechanical sensitivity” value was “persistent facial and hindpaw mechanical hypersensitivity”.
